According to patent US6461997B1, “Triazole sulfones having herbicidal activity” (Monsanto Technology LLC, priority 1999, dated 2002):

Experiments:
SORVU (shattercane) [1] = assay: Pre-emergence herbicidal activity, warm season; type: in vivo, Sorghum vulgare; conditions: GR80 = lowest tested rate (300, 100, 30, 10 g/ha) with 80% or greater inhibition; approx. 14 days after treating; 30/21° C.
Outline: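 Activity is expressed as the rate giving 80% inhibition, with 300, 100, 30 and 10 g/ha typically tested. An asterisk marks activity short of 80% at the top rate. Warm-season grasses were held at 30/21 °C; cool-season blackgrass and wild buckwheat at 18/13 °C; scoring at about 14 days.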

[2] = system: VERPE (creeping speedwell); assay: Pre-emergence herbicidal activity, cool season; type: in vivo, Veronica persicaria; conditions: lowest tested rate with 80% or greater inhibition; rates 300, 100, 30, 10 g/ha; about 14 days
Outline: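 Seeds sown in sterilised fertilised topsoil received surface-applied compound in 50:50 acetone/water, typically at 300, 100, 30 and 10 g/ha, then greenhouse-grown at 30/21° C (warm-season species) or 18/13° C (cool-season species). Percent inhibition versus untreated plants was scored at about 14 days, giving GR80; an asterisk marks activity short of 80% at the top rate.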

SOLNI (black nightshade) = assay: Pre-plant incorporated (PPI) herbicidal activity, warm season; type: in vivo, Solanum nigrum; conditions: for PPI activity (GR80) SOLNI: pre-plant incorporated, GR80 = lowest tested rate with 80% or greater inhibition, approx. 14 days after treating, 30/21° C.
Method: (§1) In another set of tests, the pre-plant incorporated (PPI) activity of compounds of this invention was evaluated on the same species as for the pre-emergence tests described above. In the PPI tests the following procedure, designed to simulate PPI application, was used.
(§2) A pre-prepared topsoil mixture (described above) was placed in a pot and compacted to a depth of 1.0 to 1.25 cm from the top of the pot. Seeds of each of several monocotyledonous and dicotyledonous annual plant species were placed on top of the soil. A sufficient quantity of soil to cover the seeds and level fill the pot was weighed into an open container. A known amount of the test compound was dissolved or suspended in an organic solvent and applied by spraying to this cover soil. The cover soil was thoroughly mixed to distribute the test compound throughout the cover soil, and was then applied as a cover layer over the seeds. Untreated soil was used as a cover layer for control pots. After treatment the plants were placed in a greenhouse where they received 0.64 cm of overhead irrigation. All subsequent watering consisted of a light overhead mist and/or subirrigation as needed for germination and growth. Tables 9 and 10 below relate to warm season plant species which were placed after pre-emergence treatment in a greenhouse with a 30/21° C. day/night temperature regime. Tables 11 and 12 below relates to cool season plant species placed after pre-emergence treatment in a greenhouse or growth chamber with an 18/13° C. day/night temperature regime. Only the compounds of Examples 1, 6, 8, 11, 13 and 15-20 were included in PPI tests.
(§3) Approximately 14 days after planting and treating, the plants were observed and herbicidal efficacy recorded as percent inhibition by comparison with untreated plants.

[3] = system: CHEAL (common lambsquarters); assay: as above; type: in vivo, Chenopodium album; conditions: for PPI activity (GR80) CHEAL: pre-plant incorporated, GR80 = lowest tested rate with 80% or greater inhibition, approx. 14 days after treating, 30/21° C.; for Percent inhibition CHEAL: PPI application
Method: as §1, §2, §3

[4] = system: PANMI (wild proso millet); assay: as above; type: in vivo, Panicum miliaceum; conditions: for PPI activity GR80, PANMI: pre-plant incorporated, lowest tested rate with 80% or greater inhibition, about 14 days
Method: as §1, §2, §3

SORVU (shattercane) [5] = assay: as above; type: in vivo, Sorghum vulgare; conditions: for PPI activity GR80, SORVU: pre-plant incorporated, lowest tested rate with 80% or greater inhibition, about 14 days
Method: as §1, §2, §3

corn (ZEAMX) = assay: Selectivity test, PPI, warm season crop; type: in vivo, Zea mays; conditions: PPI application
Method: as §2, §3
Additional pre-emergence and PPI tests were conducted by the procedures described above, on warm and cool season weed species in the presence of crop species, to assess herbicidal selectivity. Crop species included in warm season tests were corn (Zea mays, ZEAMX), rice (Oryza sativa, ORYSA) and soybean (Glycine max, GLYMX). Crop species included in cool season tests were wheat (Triticum aestivum, TRZAW), barley (Hordeunm vulgare, HORVX) and oilseed rape (Brassica napus, BRSNS).
Tables 15 and 16 relate to pre-emergence and PPI tests respectively on warm season species. Table 17 relates to pre-emergence tests on cool season species.

Row | Compound | Pre-emergence activity (GR80) SORVU (SORVU (shattercane) [1]) | Pre-emergence activity GR80, VERPE [2] | PPI activity (GR80) SOLNI (SOLNI (black nightshade)) | PPI activity (GR80) CHEAL [3] | PPI activity GR80, PANMI [4] | PPI activity GR80, SORVU (SORVU (shattercane) [5]) | Percent inhibition SOLNI (SOLNI (black nightshade); PPI application, 30 g/ha) | Percent inhibition SOLNI (SOLNI (black nightshade); PPI application, 100 g/ha) | Percent inhibition SOLNI (SOLNI (black nightshade); PPI application, 300 g/ha) | Percent inhibition SOLNI (SOLNI (black nightshade); PPI application, 900 g/ha) | Percent inhibition CHEAL ([3]; 30 g/ha) | Percent inhibition CHEAL ([3]; 100 g/ha) | Percent inhibition CHEAL ([3]; 300 g/ha) | Percent inhibition CHEAL ([3]; 900 g/ha) | Percent inhibition PANMI ([4]; PPI application, 30 g/ha) | Percent inhibition PANMI ([4]; PPI application, 100 g/ha) | Percent inhibition PANMI ([4]; PPI application, 300 g/ha) | Percent inhibition PANMI ([4]; PPI application, 900 g/ha) | Percent inhibition SORVU (SORVU (shattercane) [5]; PPI application, 30 g/ha) | Percent inhibition SORVU (SORVU (shattercane) [5]; PPI application, 100 g/ha) | also measured
1 | C=C(C)CC(F)(F)S(=O)(=O)c1ncn(C(=O)N(CC)CC)n1 [Example 18] | * (activity observed, at least at highest rate, but <80% inhibition) | 300 g/ha | 300 g/ha | 30 g/ha | 100 g/ha | 100 g/ha | – | – | – | – | – | – | – | – | – | – | – | – | – | – | inhibition at 10 g/ha (SOLNI (black nightshade); Solanum nigrum, PPI application, 10 g/ha, read-out: Percent inhibition SOLNI): 0%; inhibition at 30 g/ha (SOLNI (black nightshade); Solanum nigrum, PPI application, 30 g/ha, read-out: Percent inhibition SOLNI): 0%; inhibition at 100 g/ha (SOLNI (black nightshade); Solanum nigrum, PPI application, 100 g/ha, read-out: Percent inhibition SOLNI): 20%; inhibition at 300 g/ha (SOLNI (black nightshade); Solanum nigrum, PPI application, 300 g/ha, read-out: Percent inhibition SOLNI): 99%; inhibition at 900 g/ha (SOLNI (black nightshade); Solanum nigrum, PPI application, 900 g/ha, read-out: Percent inhibition SOLNI): 90%; inhibition at 10 g/ha ([4]; Panicum miliaceum, PPI application, 10 g/ha, read-out: Percent inhibition PANMI): 0%; inhibition at 30 g/ha ([4]; Panicum miliaceum, PPI application, 30 g/ha, read-out: Percent inhibition PANMI): 40%; inhibition at 100 g/ha ([4]; Panicum miliaceum, PPI application, 100 g/ha, read-out: Percent inhibition PANMI): 100%; inhibition at 300 g/ha ([4]; Panicum miliaceum, PPI application, 300 g/ha, read-out: Percent inhibition PANMI): 100%; inhibition at 900 g/ha ([4]; Panicum miliaceum, PPI application, 900 g/ha, read-out: Percent inhibition PANMI): 100%; inhibition at 10 g/ha (SORVU (shattercane) [5]; Sorghum bicolor, PPI application, 10 g/ha, read-out: Percent inhibition SORVU): 20%; inhibition at 30 g/ha (SORVU (shattercane) [5]; Sorghum bicolor, PPI application, 30 g/ha, read-out: Percent inhibition SORVU): 50%; inhibition at 100 g/ha (SORVU (shattercane) [5]; Sorghum bicolor, PPI application, 100 g/ha, read-out: Percent inhibition SORVU): 50%; inhibition at 300 g/ha (SORVU (shattercane) [5]; Sorghum bicolor, PPI application, 300 g/ha, read-out: Percent inhibition SORVU): 100%; inhibition at 900 g/ha (SORVU (shattercane) [5]; Sorghum bicolor, PPI application, 900 g/ha, read-out: Percent inhibition SORVU): 100%; inhibition at 10 g/ha (corn (ZEAMX); Zea mays, 10 g/ha, read-out: Percent inhibition ZEAMX): 0%; inhibition at 30 g/ha (corn (ZEAMX); Zea mays, 30 g/ha, read-out: Percent inhibition ZEAMX): 0%; inhibition at 100 g/ha (corn (ZEAMX); Zea mays, 100 g/ha, read-out: Percent inhibition ZEAMX): 10%; inhibition at 300 g/ha (corn (ZEAMX); Zea mays, 300 g/ha, read-out: Percent inhibition ZEAMX): 15%; inhibition at 900 g/ha (corn (ZEAMX); Zea mays, 900 g/ha, read-out: Percent inhibition ZEAMX): 20%
2 | CCN(CC)C(=O)n1cnc(S(=O)(=O)C(F)(F)SCCOC)n1 [Example 13] | * (activity observed, at least at highest rate, but <80% inhibition) | 300 g/ha | 100 g/ha | 30 g/ha | 100 g/ha | 300 g/ha | 30% | 60% | 95% | 100% | 20% | 100% | 100% | 100% | 90% | 70% | 100% | 100% | 50% | 90% | Percent inhibition SOLNI (SOLNI (black nightshade); PPI application, 10 g/ha): 0%; Percent inhibition CHEAL ([3]; 10 g/ha): 30%; Percent inhibition PANMI ([4]; PPI application, 10 g/ha): 100%; Percent inhibition SORVU (SORVU (shattercane) [5]; PPI application, 10 g/ha): 0%; Percent inhibition SORVU (SORVU (shattercane) [5]; PPI application, 300 g/ha): 100%; Percent inhibition SORVU (SORVU (shattercane) [5]; PPI application, 900 g/ha): 100%; Percent inhibition ZEAMX (corn (ZEAMX); 10 g/ha): 0%; Percent inhibition ZEAMX (corn (ZEAMX); 30 g/ha): 0%; Percent inhibition ZEAMX (corn (ZEAMX); 100 g/ha): 5%; Percent inhibition ZEAMX (corn (ZEAMX); 300 g/ha): 10%; Percent inhibition ZEAMX (corn (ZEAMX); 900 g/ha): 50%
3 | CCN(CC)C(=O)n1cnc(S(=O)(=O)C(F)(F)C(F)(F)Br)n1 [Example 4] | * (activity observed, at least at highest rate, but <80% inhibition) | 10 g/ha | – | – | – | – | 60% | 95% | 100% | 100% | 60% | 100% | 100% | 100% | 0% | 100% | 100% | 100% | 0% | 45% | Percent inhibition SORVU (SORVU (shattercane) [5]; PPI application, 300 g/ha): 100%; Percent inhibition SORVU (SORVU (shattercane) [5]; PPI application, 900 g/ha): 100%; Percent inhibition ZEAMX (corn (ZEAMX); 30 g/ha): 0%; Percent inhibition ZEAMX (corn (ZEAMX); 100 g/ha): 5%; Percent inhibition ZEAMX (corn (ZEAMX); 300 g/ha): 40%; Percent inhibition ZEAMX (corn (ZEAMX); 900 g/ha): 50%
